Here are results for three compounds from paper PMC3931943, “Extraction of tamoxifen and its metabolites from formalin-fixed, paraffin-embedded tissues: an innovative quantitation method using liquid chromatography and tandem mass spectrometry” (Cancer Chemotherapy and Pharmacology, 2014).

Data set [1] can be described thus: LC-MS/MS quantitation of TAM and its metabolites in archival FFPE breast tumor tissue of TAM-treated patients. As to conditions: for Mean concentration in FFPE tissue, tumor recurrent patients: breast tumor recurrence patients (n = 16), mean 26 months on TAM; for Mean concentration in FFPE tissue, tumor recurrent patients / Mean concentration in FFPE tissue, tumor non-recurrent patients: 20 mg/day TAM for at least 6 months, mean ± SEM, Z-isomers quantitated; for Mean concentration in FFPE tissue, tumor non-recurrent patients: patients without tumor recurrence (n = 8), mean 22 months on TAM. It counts as in vivo, human. On the procedure:
This study was approved by the Conjoint Health Research Ethics Board. FFPE tissue blocks were acquired from the archives of the pathology department at Foothills Medical Centre (Calgary, AB, Canada). Patients who had estrogen-receptor positive breast cancers diagnosed from 1990 to 2010 and treated with standard doses of TAM (20 mg/day of TAM for at least 6 months until time of biopsy with a treatment plan of 5 years on TAM) were selected for investigation. Patients were divided into two groups categorized as breast tumor recurrence (n = 16) and non-recurrence (n = 8).
Six 15 μm paraffin sections were removed from each FFPE tissue block and placed in a 1.5 mL eppendorf tube. The tissue sections were then deparaffinized by incubating with 1 mL of xylene for 10 min at room temperature. About 20 μL of I.S. was added followed by centrifugation at 20,000g for 5 min. Since xylene washes most of the TAM and metabolites from the paraffin sections, the supernatant was collected and transferred to a clean eppendorf tube. This procedure was repeated, and the two supernatants were combined followed by an SPE clean-up. Sample purification was performed via an SPE column vacuum manifold (Supelco, PA, USA). Samples were loaded onto the SPE columns previously conditioned with 3 mL of methanol and acetonitrile followed by a wash with 2 mL of 10 % methanol. The SPE cartridges were dried thereafter for 2 min, and the analytes were eluted with 2 mL of 5 % 50 mM ammonium acetate in methanol. Eluates were evaporated to dryness under a stream of nitrogen at 55 °C using a heating module obtained from Thermo Scientific/Pierce (Asheville, NC, USA). The dry extracts were then resuspended in 100 μL of acetonitrile/0.2 % formic acid (50:50).
Liquid chromatography was performed on a 1200 SL series LC system consisting of a binary pump, well-plate autosampler and thermostated column compartment (Agilent Technologies). Separation of TAM and metabolites was carried out using a Zorbax SB-C18 column (150 × 2.1 mm i.d., 3.5 μm particle size, Agilent Technologies) with a column temperature of 40 °C. Mobile phase consisted of 0.2 % formic acid and acetonitrile (60:40) at a flow rate of 0.2 mL/min with a gradient of 40–90 % of acetonitrile over 5 min. About 30 μL of the sample extract was injected onto the LC system. The total run time was 12 min including column equilibration.
MS detection of the analytes was accomplished by a 6410 triple-quadrupole mass spectrometer equipped with an electrospray ion source operating in the positive ion mode (Agilent Technologies). High purity nitrogen was used as the drying gas at a flow rate of 11 L/min with a gas temperature of 350 °C, and the nebulizer pressure was set at 35 psi. The capillary voltage was set at 4,000 V for each compound; however, the fragmentor voltages and the collision energies were operated at different settings for optimization of each analyte (Table 1). Quantitation was performed in multiple-reaction monitoring (MRM) mode, and the transitions of the precursors to product ions are summarized in Table 1. Data acquisition and analysis were performed using Mass Hunter Software v.B.02.01 (Agilent Technologies).

On the set-up of data set [2]: method as in PMID 17529893. The conditions noted are these: frozen tissues (~2 mg), breast cancer patients, single dose of 20 mg TAM, samples 5 h postdrug administration; cited from earlier work.

On to `CC/C(=C(\c1ccc(O)cc1)c1ccc(OCCNC)cc1)c1ccccc1` [Endoxifen, N-desmethyl-4-hydroxy-tamoxifen], for which, in data set [1], the “Mean concentration in FFPE tissue, tumor recurrent patients” value is recorded as 19.2 ± 5.08 ng/g and the “Mean concentration in FFPE tissue, tumor non-recurrent patients” value was 94.6 ± 41.0 ng/g. In data set [1] (some of the tumor recurrent patients (data not shown), possibly below the detection limit of the assay), the “Detection in FFPE tissue of tumor recurrent patients” value was “not found”.
As to `CC/C(=C(\c1ccccc1)c1ccc(OCCN(C)C)cc1)c1ccccc1` [TAM, Tamoxifen], in data set [1], the “Mean concentration in FFPE tissue, tumor recurrent patients” value stood at 122 ± 25.2 ng/g and the “Mean concentration in FFPE tissue, tumor non-recurrent patients” value is listed as 147 ± 51.7 ng/g. The “Average concentration in frozen tissue” value in data set [2] is recorded as 118 ng/g.
On to `CC/C(=C(\c1ccccc1)c1ccc(OCCNC)cc1)c1ccccc1` [DMT, N-desmethyl-tamoxifen], for which, in data set [1], the “Mean concentration in FFPE tissue, tumor recurrent patients” value is reported as 324 ± 103 ng/g and the “Mean concentration in FFPE tissue, tumor non-recurrent patients” value is listed as 1,256 ± 282.8 ng/g. In addition, in data set [2], the “Average concentration in frozen tissue” value is reported as 23.3 ng/g and the “Range of concentration in frozen tissue” value is 0 to 643 ng/g.
